The numbers were not newly measured in PMC5688156, “The natural product carolacton inhibits folate-dependent C1 metabolism by targeting FolD/MTHFD” (Nature Communications, 2017), which cites them from elsewhere.

The data set relates to human cells. More on the design: method as in PMID 9765352, PMID 9533527, PMID 9067281. Conditions: poor activity; cited from earlier work.

In the case of `Nc1nc2c(c(=O)[nH]1)N1C(=O)N(c3ccc(C(=O)N[C@@H](CCC(=O)O)C(=O)O)cc3)CC1CN2` (stereo partly shown) [LY345899], the 50% inhibitory concentration (IC50) – broadly, the concentration needed to halve the response being measured – was 128 µM.
